# Reference: US20240261417A1, “SOS1 DEGRADING AGENT AND PREPARATION METHOD THEREFOR AND APPLICATION THEREOF” (SHANGHAI LEADINGTAC PHARMACEUTICAL CO. LTD., priority 2021, published 2024)
# Target: T1, SOS1 protein (Homo sapiens, UniProt Q07889)
# T1 sequence (Q07889 1-1333): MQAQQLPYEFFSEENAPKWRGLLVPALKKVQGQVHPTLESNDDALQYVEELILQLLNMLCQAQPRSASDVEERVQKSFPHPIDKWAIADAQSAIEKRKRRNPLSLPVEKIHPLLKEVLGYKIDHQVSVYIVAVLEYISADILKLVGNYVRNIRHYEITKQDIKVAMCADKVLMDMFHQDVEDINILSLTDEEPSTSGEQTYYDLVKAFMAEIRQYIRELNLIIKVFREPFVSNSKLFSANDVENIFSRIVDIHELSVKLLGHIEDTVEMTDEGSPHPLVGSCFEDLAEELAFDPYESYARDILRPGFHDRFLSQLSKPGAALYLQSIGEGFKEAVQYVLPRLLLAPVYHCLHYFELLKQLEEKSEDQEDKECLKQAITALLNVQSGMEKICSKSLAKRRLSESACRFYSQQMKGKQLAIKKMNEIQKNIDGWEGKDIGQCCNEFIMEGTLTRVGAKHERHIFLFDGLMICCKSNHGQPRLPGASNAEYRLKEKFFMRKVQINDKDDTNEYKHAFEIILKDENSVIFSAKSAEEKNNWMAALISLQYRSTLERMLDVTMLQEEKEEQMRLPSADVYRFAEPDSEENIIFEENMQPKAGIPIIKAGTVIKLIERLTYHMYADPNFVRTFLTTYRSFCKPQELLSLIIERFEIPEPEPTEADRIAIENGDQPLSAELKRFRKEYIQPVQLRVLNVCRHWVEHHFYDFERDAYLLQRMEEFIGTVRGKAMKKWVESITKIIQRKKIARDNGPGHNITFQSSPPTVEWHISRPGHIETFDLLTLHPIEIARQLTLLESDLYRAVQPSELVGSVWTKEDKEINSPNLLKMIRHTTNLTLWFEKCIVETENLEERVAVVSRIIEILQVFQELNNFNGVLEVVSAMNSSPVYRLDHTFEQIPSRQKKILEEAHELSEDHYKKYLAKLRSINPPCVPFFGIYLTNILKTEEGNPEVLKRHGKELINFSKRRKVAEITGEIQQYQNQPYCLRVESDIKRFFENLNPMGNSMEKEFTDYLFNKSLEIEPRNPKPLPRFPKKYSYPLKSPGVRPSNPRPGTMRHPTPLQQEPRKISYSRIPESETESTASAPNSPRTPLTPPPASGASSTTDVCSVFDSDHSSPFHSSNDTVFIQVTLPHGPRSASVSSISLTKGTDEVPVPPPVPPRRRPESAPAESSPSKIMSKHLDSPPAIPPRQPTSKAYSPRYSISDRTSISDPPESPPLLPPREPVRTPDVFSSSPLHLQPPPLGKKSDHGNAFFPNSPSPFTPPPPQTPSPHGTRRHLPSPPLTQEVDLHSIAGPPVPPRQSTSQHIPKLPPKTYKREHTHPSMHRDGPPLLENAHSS
# Test: SOS1 degradation assay (Western blot), NCI-H358 cells
# Assay type: cell-based
# Set-up: The degradation of SOS1 by the compounds was investigated on KRAS G12C mutant human non-small cell lung cancer cells NCI-H358; host or cells: NCI-H358 (human cancer cell lines)
# Settings: SOS1 degradation, NCI-H358 cells, 24 h, Western blot; for DC50: read-out: NCI-H358 (G12C) DC50; for Dmax: read-out: NCI-H358 (G12C) Dmax
# Description: The specific procedures were as follows:
# 0.95 mL of cells were seeded into each well of a 24-well cell culture plate to achieve a cell density of 5×10^5 cells/well; the cell plate was incubated in an incubator at 37° C. with 5% CO2 overnight. Then 50 μL of the compound solution after dilution was added to each of the wells with the corresponding cells, so that the final concentration of the compound was in a range of 0.03-3000 nM. […] After dosing, the cell plate was incubated in an incubator at 37° C. with 5% CO2 for 24 h. […] After the plate was left to stand on ice for 30 min, the protein lysate in each well was transferred to a 1.5 mL centrifuge tube and centrifuged at 15000 g for 20 min at 4° C. The cell lysate supernatant after centrifugation was cryopreserved at −80° C. for testing and was used for determining the degradation level of the SOS1 protein by a WB method. The concentration of total protein in the cell lysate supernatant was determined using the BCA Protein Quantification Kit (Tiangen, PA115-02).
# The concentration of total protein in the cell lysate was determined by BCA. The total protein was adjusted to 0.5 μg/μL with PBS and 5× SDS-PAGE protein loading buffer (Beyotime, P0015L), incubated in a water bath at 100° C. for 15 min, incubated in an ice bath on ice for 5 min, centrifuged at 14000 g for 1 min at 4° C., and mixed well as a loading sample for WB. Protein electrophoresis was performed on a precast gel (KeyGEN, KGMGO10W15) with a loading volume of 10 μL (total protein: 5 μg) using a Tris-MOPS-SDS running solution (Adamas, P1598253) at a constant voltage of 120 V for 55 min. After the electrophoresis, the protein on the gel strip was transferred to a PVDF membrane at a constant current of 250 mA for 65 min. After the membrane transfer, the membrane was incubated in 1× QuickBlock blocking buffer (Beyotime, P0235) for 30 min at room temperature. […] The protein map was subjected to gray value analysis by the chemiluminescence imaging system from Clinx. […] Then the degradation rate was calculated by comparing the gray correction value with the gray correction value of the control group. Then nonlinear curve fitting was performed by GraphPad Prism 8 in the logarithmic concentration-inhibition rate to obtain the DC50 and Dmax values of the compounds.
SMILES,DC50 [nM],Dmax [%],NCI-H358 (G12C) Dmax
"COc1cc2nc(C)nc(N[C@H](C)c3cc(N)cc(C(F)(F)F)c3)c2cc1[C@H]1CC[C@H](C(=O)N2CCC(CCC3CCN(C(=O)c4ccc(Cl)c(N5CCC(=O)NC5=O)c4)CC3)CC2)CC1 [Example 15, 1-(5-(4-(2-(1-((1R,4R)-4-(4-(((R)-1-(3-amino-5-(trifluoromethyl)phenyl)ethyl)amino)-7-methoxy-2-methylquinazolin-6-yl)cyclohexane-1-carbonyl)piperidin-4-yl)ethyl)piperidine-1-carbonyl)-2-chlorophenyl)dihydropyrimidine-2,4(1H,3H)-dione]",1000 to 10000,< 30,–
"COc1cc2nc(C)nc(N[C@H](C)c3cc(N)cc(C(F)(F)F)c3)c2cc1C1=CCC(C(=O)N2CCC(CCOCC3CCN(C(=O)c4ccc(OC)c(N5CCC(=O)NC5=O)c4)CC3)CC2)CC1 (stereo partly drawn) [Example 32, 1-(5-(4-((2-(1-(4-(4-(((R)-1-(3-amino-5-(trifluoromethyl)phenyl)ethyl)amino)-7-methoxy-2-methylquinazolin-6-yl)cyclohex-3-ene-1-carbonyl)piperidin-4-yl)ethoxy)methyl)piperidine-1-carbonyl)-2-methoxyphenyl)dihydropyrimidine-2,4(1H,3H)-dione]",< 50,80 to 100,–
COc1cc2nc(C)nc(N[C@H](C)c3cc(-c4ccccc4CN(C)C)cs3)c2cc1[C@H]1CC[C@H](C(=O)N2CCC(CCOCC3CCN(C(=O)c4ccc(Cl)c(N5CCC(=O)NC5=O)c4)CC3)CC2)CC1 [Example 48],< 50,80 to 100,–
"[2H]C([2H])(OCC1CCN(C(=O)c2ccc(Cl)c(N3CCC(=O)NC3=O)c2)CC1)C1CCN(C(=O)[C@H]2CC[C@H](c3cc4c(N[C@H](C)c5cc(N)cc(C(F)(F)F)c5)nc(C)nc4cc3OC)CC2)CC1 [Example 76, 1-(5-(4-(((1-((1R,4R)-4-(4-(((R)-1-(3-amino-5-(trifluoromethyl)phenyl)ethyl)amino)-7-methoxy-2-methylquinazolin-6-yl)cyclohexane-1-carbonyl)piperidin-4-yl)methoxy-d2)methyl)piperidine-1-carbonyl)-2-chlorophenyl)dihydropyrimidine-2,4(1H,3H)-dione]",–,–,"B (when 50≤Dmax (%)<80, the level was B)"
"COc1cc2nc(C)nc(N[C@H](C)c3cc(N)cc(C(F)(F)F)c3)c2cc1O[C@H]1CC[C@H](C(=O)N2CCN(CC3CCC4(CC3)CCN(C(=O)c3ccc(Cl)c(N5CCC(=O)NC5=O)c3)CC4)CC2)CC1 [Example 31, 1-(5-(9-((4-((1R,4R)-4-((4-(((R)-1-(3-amino-5-(trifluoromethyl)phenyl)ethyl)amino)-7-methoxy-2-methylquinazolin-6-yl)oxo)cyclohexane-1-carbonyl)piperazin-1-yl)methyl)-3-azaspiro[5.5]undecane-3-carbonyl)-2-chlorophenyl)dihydropyrimidine-2,4(1H,3H)-dione]",1000 to 10000,< 30,–
"COc1cc2nc(C)nc(N[C@H](C)c3cc(N)cc(C(F)(F)F)c3)c2cc1[C@H]1CC[C@H](C(=O)N2CCN(CC3CCC4(CC3)CCN(C(=O)c3ccc(N5CCC(=O)NC5=O)cc3)CC4)CC2)CC1 [Example 22, 1-(4-(9-((4-((1R,4R)-4-(4-(((R)-1-(3-amino-5-(trifluoromethyl)phenyl)ethyl)amino)-7-methoxy-2-methylquinazolin-6-yl)cyclohexane-1-carbonyl)piperazin-1-yl)methyl)-3-azaspiro[5.5]undecane-3-carbonyl)phenyl)dihydropyrimidine-2,4(1H,3H)-dione]",1000 to 10000,30 to 50,–
"COc1cc2nc(C)nc(N[C@H](C)c3cc(N)cc(C(F)(F)F)c3)c2cc1C1CCC(C(=O)N2CCN(CC3CCC4(CC3)CCN(C(=O)c3ccc(C5CCC(=O)NC5=O)cc3)CC4)CC2)CC1 (stereo partly drawn) [Example 23, 3-(4-(9-((4-((1R,4R)-4-(4-(((R)-1-(3-amino-5-(trifluoromethyl)phenyl)ethyl)amino)-7-methoxy-2-methylquinazolin-6-yl)cyclohexane-1-carbonyl)piperazin-1-yl)methyl)-3-azaspiro[5.5]undecane-3-carbonyl)phenyl)piperidine-2,6-dione]",< 50,–,"B (when 50≤Dmax (%)<80, the level was B)"
"COc1cc2nc(C)nc(N[C@H](C)c3cc(N)cc(C(F)(F)F)c3)c2cc1[C@H]1CC[C@H](C(=O)N2CCN(CC#CC3CCN(C(=O)c4ccc(Cl)c(N5CCC(=O)NC5=O)c4)CC3)CC2)CC1 [Example 27, 1-(5-(4-(3-(4-((1R,4R)-4-(4-(((R)-1-(3-amino-5-(trifluoromethyl)phenyl)ethyl)amino)-7-methoxy-2-methylquinazolin-6-yl)cyclohexane-1-carbonyl)piperazin-1-yl)prop-1-yn-1-yl)piperidine-1-carbonyl)-2-chlorophenyl)dihydropyrimidine-2,4(1H,3H)-dione]",1000 to 10000,< 30,–
"COc1cc2nc(C)nc(N[C@H](C)c3cc(N)cc(C(F)(F)F)c3)c2cc1C1CCC(C(=O)N2CCC(CCOCC3CCN(C(=O)c4ccc5c(c4)C(=O)N(C4CCC(=O)NC4=O)C5=O)CC3)CC2)CC1 (stereo partly drawn) [Example 39, 5-(4-((2-(1-((1S,4S)-4-(4-(((R)-1-(3-amino-5-(trifluoromethyl)phenyl)ethyl)amino)-7-methoxy-2-methylquinazolin-6-yl)cyclohexane-1-carbonyl)piperidin-4-yl)ethoxy)methyl)piperidine-1-carbonyl)-2-(2,6-dioxopiperidin-3-yl)isoindoline-1,3-dione]",< 50,80 to 100,–
"Cc1nc(N[C@H](C)c2cc(N)cc(C(F)(F)F)c2)c2cc([C@H]3CC[C@H](C(=O)N4CCN(CC5CCC6(CC5)CCN(C(=O)c5ccc(Cl)c(N7CCC(=O)NC7=O)c5)CC6)CC4)CC3)ncc2n1 [Example 78, 1-(5-(9-((4-((1R,4R)-4-(4-(((R)-1-(3-amino-5-(trifluoromethyl)phenyl)ethyl)amino)-2-methylpyrido[3,4-d]pyrimidin-6-yl)cyclohexane-1-carbonyl)piperazin-1-yl)methyl)-3-azaspiro[5.5]undecane-3-carbonyl)-2-chlorophenyl)dihydropyrimidine-2,4(1H,3H)-dione]",100 to 500,50 to 80,–
